# Legend:
# [1] = target: T1, 5-hydroxytryptamine receptor 1A (Homo sapiens, UniProt P08908)
# T1 sequence (P08908 whole entry): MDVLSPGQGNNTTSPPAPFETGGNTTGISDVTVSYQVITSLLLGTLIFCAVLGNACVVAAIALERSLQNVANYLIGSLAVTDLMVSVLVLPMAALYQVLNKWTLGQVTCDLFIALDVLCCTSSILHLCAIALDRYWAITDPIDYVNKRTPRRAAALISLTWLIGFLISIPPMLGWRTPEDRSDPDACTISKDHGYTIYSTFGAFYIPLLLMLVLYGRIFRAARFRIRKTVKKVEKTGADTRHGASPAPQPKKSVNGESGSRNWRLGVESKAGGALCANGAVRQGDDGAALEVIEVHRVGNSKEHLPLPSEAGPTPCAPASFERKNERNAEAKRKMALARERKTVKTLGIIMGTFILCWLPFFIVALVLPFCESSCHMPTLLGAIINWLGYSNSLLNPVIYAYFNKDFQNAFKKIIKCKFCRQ
# D(2) dopamine receptor = D(2) dopamine receptor (Homo sapiens, UniProt P14416)
# Sequence of D(2) dopamine receptor (P14416 whole entry): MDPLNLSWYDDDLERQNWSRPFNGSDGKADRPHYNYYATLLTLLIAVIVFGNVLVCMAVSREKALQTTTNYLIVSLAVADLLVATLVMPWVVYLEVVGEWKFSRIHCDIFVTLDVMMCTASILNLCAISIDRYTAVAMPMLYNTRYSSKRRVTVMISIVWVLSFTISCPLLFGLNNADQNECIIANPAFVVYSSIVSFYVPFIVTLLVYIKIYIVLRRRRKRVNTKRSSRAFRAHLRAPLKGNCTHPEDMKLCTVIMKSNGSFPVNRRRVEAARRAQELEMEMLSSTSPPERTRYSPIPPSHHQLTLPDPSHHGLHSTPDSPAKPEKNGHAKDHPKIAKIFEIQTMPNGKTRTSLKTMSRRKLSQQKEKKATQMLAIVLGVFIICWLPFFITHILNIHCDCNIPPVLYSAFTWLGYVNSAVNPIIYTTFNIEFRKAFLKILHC
Compound,Ki [1],Ki (D(2) dopamine receptor)
"CC(C)(C)NCC(O)COc1cccc2c1SCCC2 (single isomer, unassigned; (-)) [TERTATOLOL(-)]",6.7 nM,> 10000 nM
CCCN(CCC)C1CCc2ccc(O)cc2C1 (stereo not drawn),265 nM,–

# Source: BindingDB's records for PubMed 9067310 (Institut De Recherches Servier, 1997)
